Molecules are shown by their SMILES. Counter-ions that a name gives are not always drawn.

The test system of series [1] is motility of the gastrointestinal (GI) tract. The series is described as follows: Animal models of gastrointestinal motility. It is filed as in vivo.
In series [2] the target is T1, human mu opioid receptor (Homo sapiens, UniProt P35372). The series is described as follows: Radioligand binding assay on human mu opioid receptor ([3H]-Diprenorphine displacement, CHO-K1 membranes). As to conditions: [3H]-Diprenorphine at 0.5 nM.
Series [3] relates to loperamide-induced delayed gastric emptying. As to the kind of experiment: Rat gastric emptying assay (reversal of loperamide-induced delayed gastric emptying). Format: in vivo. As to conditions: administered orally, loperamide 1 mg/kg s.c. Here is the method:
In this assay the efficacy of test compounds was evaluated in a model of gastrointestinal transit, which evaluates peripheral activity. This study was approved by the Institutional Animal Care and Use Committee at […]. and conformed to the Guide for the Care and Use of Laboratory Animals published by the National Academy of Sciences (©1996). Test compounds were evaluated in the rat gastric emptying assay to determine their ability to reverse loperamide-induced delayed gastric emptying. Rats were fasted up overnight prior to administration of test compounds or vehicle by intravenous, subcutaneous, intramuscular or oral routes of administration at doses ranging from 0.001 to about 30 milligrams/kilogram (mg/kg). The administration of test compound was followed by subcutaneous administration of loperamide at a dose of 1 mg/kg or vehicle. […] Gastric weight was then determined after removal of the ligatures. Data was analyzed using the GraphPad Prism Software package (GraphPad Software, Inc., San Diego, Calif.). Percent reversal curves were constructed by non-linear regression analysis using the sigmoidal dose response (variable slope) model and best-fit ID50 values were calculated. […]

The nature of series [4]: Dynamic moisture sorption assessment. It is filed as physicochemical. As to the method: Dynamic moisture sorption (DMS) assessment was performed at 25° C. using a VTI atmospheric microbalance, SGA-100 system (VTI Corp., Hialeah, Fla. 33016). […] A typical DMS analysis consisted of three scans: ambient to 2% relative humidity (RH), 2% RH to 90% RH, 90% RH to 5% RH at a scan rate of 5% RH/step. The mass was measured every two minutes and the RH was changed to the next value (±5% RH) when the mass of the sample was stable to within 0.02% for 5 consecutive points. Representative DMS traces for samples of a crystalline sulfate salt and of a crystalline hydrate of a sulfate salt of compound 1 are shown in FIGS. 3 and 6, respectively.

Series [5] can be described thus: Solid state stability assessment. It is filed as physicochemical. As to conditions: for changes in DSC, TGA, XRPD results after storage: 4 weeks storage at elevated temperature and humidity. Here is the method:
Samples of the sulfate salt of the invention were stored in multiple open glass vials at 20° C. and 60% relative humidity (RH) and at 40° C. and 75% RH. At specific intervals, the contents of a representative vial was removed and analyzed by DSC, TGA, PXRD, and by HPLC for chemical purity. […] The chemical purity of the stored samples by HPLC was unchanged at 99.7%.

Series [6] deals with T1, human mu opioid receptor. The series is described as follows: biochemical. The conditions noted are these: read-out: intrinsic activity (IA).

T1 sequence (P35372 whole entry): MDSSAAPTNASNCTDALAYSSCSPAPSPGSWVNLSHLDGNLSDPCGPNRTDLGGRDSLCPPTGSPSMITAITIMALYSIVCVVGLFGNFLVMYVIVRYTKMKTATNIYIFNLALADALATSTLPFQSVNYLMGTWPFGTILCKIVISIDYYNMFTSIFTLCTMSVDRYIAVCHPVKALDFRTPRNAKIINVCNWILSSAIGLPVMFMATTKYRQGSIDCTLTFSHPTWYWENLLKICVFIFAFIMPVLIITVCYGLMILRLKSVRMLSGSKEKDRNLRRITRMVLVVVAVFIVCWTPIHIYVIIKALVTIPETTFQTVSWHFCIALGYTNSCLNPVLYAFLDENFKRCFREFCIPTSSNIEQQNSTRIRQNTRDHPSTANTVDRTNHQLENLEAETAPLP

Consider `NC(=O)c1cccc(C2CC3CCC(C2)N3CCN(CC2CCCCC2)C(=O)[C@@H](O)CO)c1` (stereo partly drawn) [compound 1, 3-endo-(8-{2-[cyclohexylmethyl-((S)-2,3-dihydroxy-propionyl)amino]ethyl}-8-aza-bicyclo[3.2.1]oct-3-yl)benzamide], for which the “effect on motility of the gastrointestinal tract” value in series [1] is listed as “increase motility of the gastrointestinal (GI) tract”.

For orientation: Ki means a measure of affinity in units of concentration, obtained from inhibition or displacement. Low readings indicate higher affinity, high ones lower affinity. For the compound `NC(=O)c1cccc(C2CC3CCC(C2)N3CCN(CC2CCCCC2)C(=O)[C@@H](O)CO)c1` (stereo partly drawn) [sulfate salt of compound 1, 3-endo-(8-{2-[cyclohexylmethyl-((S)-2,3-dihydroxy-propionyl)amino]ethyl}-8-aza-bicyclo[3.2.1]oct-3-yl)benzamide sulfate], in series [2], the Ki was 0.126 nM. The “ID50, dose required for 50% reversal of the effects of loperamide” value in series [3] is reported as 0.26 mg/kg. Further, the “weight change/gain on moisture sorption (hygroscopicity)” value in series [4] (2% to 90% relative humidity at room temperature) is reported as “less than 0.3%”. For the same compound, the deliquescence result in series [4] (up to about 90% relative humidity at room temperature) is given as “neither the crystalline sulfate salt of the invention nor the hydrate thereof is deliquescent”. Moreover, the “changes in DSC, TGA, XRPD results after storage” value in series [5] (listed as crystalline sulfate salt of compound 1) is “no detectable changes”; in series [5] (listed as sulfate salt of the invention), “no detectable change”. In series [5] (4 weeks storage, open vials, 20° C./60% RH and 40° C./75% RH), the “chemical purity of the stored samples by HPLC” value is 99.7%. For the same compound, the “chemical degradation by HPLC” value in series [5] (storage for 4 weeks at 40° C. and 75% relative humidity) was “no chemical degradation”. In addition, the Emax in series [6] is -5%.
